Laboratory results published in US8609814B2, “Modified globin proteins with altered electron transport pathway” (University of Essex Enterprises Limited, priority 2007, dated 2013).

B1: myoglobin: myoglobin in its ferryl oxidation state, two site model based on FIGS. 1 and 2 data (protein, UniProt P02144 2-154, looked up)
Myoglobin: GLSDGEWQLVLNVWGKVEADIPGHGQEVLIRLFKGHPETLEKFDKFKHLKSEDEMKASEDLKKHGATVLTALGGILKKKGHHEAEIKPLAQSHATKHKIPVKYLEFISECIIQVLQSKHPGDFGADAQGAMNKALELFRKDMASNYKELGFQG
modifications: ferryl oxidation state
B2: Horse myoglobin: ferric horse myoglobin from Sigma-Aldrich, further purified by gel filtration (protein, UniProt P68082 2-154, looked up)
Myoglobin: GLSDGEWQQVLNVWGKVEADIAGHGQEVLIRLFTGHPETLEKFDKFKHLKTEAEMKASEDLKKHGTVVLTALGGILKKKGHHEAELKPLAQSHATKHKIPIKYLEFISDAIIHVLHSKHPGDFGADAQGAMTKALELFRNDIAAKYKELGFQG
modifications: ferric
notes: ferric horse myoglobin from Sigma-Aldrich, further purified by gel filtration

Key:
[1] = ferryl myoglobin reduction kinetics by deferiprone; assay type: biochemical; conditions: for concentration dependence of ferryl reduction rate constant (high affinity through-protein electron transfer pathway): reductant deferiprone, ferryl myoglobin 10 μM, sodium phosphate pH 7.4, 25° C.
Protocol: In this example the kinetics of the reduction of ferryl haem from myoglobin from different species to ferric haem protein were examined kinetically to determine the presence or absence of a high affinity-through protein pathway. Following the procedure, ferric horse myoglobin from Sigma-Aldrich (Poole, Dorset, UK, further purified by gel filtration), or recombinant ferric Aplysia myoglobin Mb (20 μM) in 5 mM sodium phosphate pH 7.4 was reacted with H2O2 (20 μM) at 25° C. for 15 min. At this time conversion of ferric myoglobin to ferryl myoglobin was greater than 95% as measured by addition of sodium sulfide (1 mM). Catalase (10 nM) was added to remove unreacted H2O2 and was left to react for a further 1 min. At the pH used the ferryl haem protein is stable for several hours. Reductant was then added in 0.1M sodium phosphate pH 7.4 in a 1:1 volume ratio so that final concentration of ferryl myoglobin was 10 μM. The pH may be ‘jumped’ to other values where the ferryl haem is unstable using other strong buffers (e.g. 0.1M sodium acetate, pH 5). The optical spectrum was followed until reaction was complete. The time course (425 nm-408 nm) was fitted to a single exponential function using the least squares method. These rate constants were then plotted as a function of reductant concentration and this profile fitted (least squares method) to a double rectangular hyperbola (FIG. 1):
Where ka and kb are the maximum rates for each hyperbola and KD1 and KD2 are the dissociation constants, S is the concentration of the reductant and AR is the rate constant for ferryl auto-reduction.
Wild-type and recombinant sperm whale myoglobin and recombinant Tyr103>Phe sperm whale myoglobin were reacted with peroxide and the kinetics of ferryl haem reduction by deferiprone determined as described in example 1. The through-protein electron transfer pathway, evident in wild type sperm whale myoglobin, is not observed in the Tyr103>Phe mutant (FIG. 2).

[2] = ferryl human haemoglobin reduction kinetics by ascorbate; assay type: biochemical; conditions: reductant ascorbate; 10 μM ferryl protein; sodium phosphate pH 7.4; double exponential fit
Description: Recombinant human haemoglobin was reacted with peroxide and the kinetics of ferryl haem reduction by ascorbate determined as described in example 1. The time course of ferryl haem reduction is not single exponential, as observed with myoglobin, but can be described using a double exponential function that generates two rate constants, one representing the observed rate constant for ferryl reduction of the alpha subunit and one representing the observed rate constant for ferryl reduction of the beta subunit.

| Molecule | concentration dependence of ferryl reduction rate constant (high affinity through-protein electron transfer pathway) [1] | further results |
| --- | --- | --- |
| Tyr103>Phe mutant: recombinant Tyr103>Phe sperm whale myoglobin | not observed |  |
| wild type ferryl human haemoglobin: recombinant wild type human haemoglobin, alpha and beta subunits |  | concentration dependence of ferryl reduction rate constant, alpha subunit [2]: double rectangular hyperbola concentration dependence |
| wild type sperm whale myoglobin: wild-type recombinant sperm whale myoglobin | evident |  |
| B1 |  | kmax, transfer of an electron through the protein to the ferryl haem iron (high affinity site) ([1]; two site model of FIGS. 1 and 2 data, site at or close to Tyr103): ≈ 0.01 s^−1 |
| B2 | shows a double rectangular hyperbola concentration dependence |  |
